According to patent US20150080438A1, “6,7-Dihydro-5H-benzo[7]annulene derivatives, processes for their preparation, pharmaceutical products comprising them and their use for preparing medicaments” (Bayer Intellectual Property GmbH, priority 2011, published 2015):

Molecular target: T1, oestrogen receptor (ER) (Homo sapiens, UniProt P03372)
T1 construct: These MVLN cells express, along with the functional oestrogen receptor (ER), a reporter construct; endogenous in cells; host or cells: MVLN cells (MCF7 derivative with ER-responsive luciferase reporter)
T1 sequence (P03372 1-595): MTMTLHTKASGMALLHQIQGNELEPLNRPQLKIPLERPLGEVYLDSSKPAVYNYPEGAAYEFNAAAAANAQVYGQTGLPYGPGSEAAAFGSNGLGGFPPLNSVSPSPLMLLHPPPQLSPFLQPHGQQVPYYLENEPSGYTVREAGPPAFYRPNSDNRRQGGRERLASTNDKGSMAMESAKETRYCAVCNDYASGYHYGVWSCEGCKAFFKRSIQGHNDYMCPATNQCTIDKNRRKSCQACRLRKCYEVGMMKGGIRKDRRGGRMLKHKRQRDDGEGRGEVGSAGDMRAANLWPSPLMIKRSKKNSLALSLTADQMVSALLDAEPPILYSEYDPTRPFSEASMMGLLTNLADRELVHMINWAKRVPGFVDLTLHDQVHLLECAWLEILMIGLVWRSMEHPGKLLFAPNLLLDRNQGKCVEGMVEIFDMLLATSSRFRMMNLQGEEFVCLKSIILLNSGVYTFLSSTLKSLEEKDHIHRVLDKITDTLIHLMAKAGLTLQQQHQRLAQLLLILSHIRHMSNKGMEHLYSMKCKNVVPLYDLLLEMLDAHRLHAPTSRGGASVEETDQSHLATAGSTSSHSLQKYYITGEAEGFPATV
Assay: Anti-oestrogenic action in MVLN cells (inhibition of estradiol-induced luciferase, transactivation antagonism)
Format: cell-based
Conditions: inhibition of estradiol-induced luciferase activity, read-out: Anti-oestrogenic action in vitro: MVLN transactivation antagonism IC50
Procedure, shortened: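 MCF7-derived MVLN cells carrying an ER-driven luciferase reporter; test compounds applied with estradiol, and anti-oestrogenic action scored as inhibition of the estradiol-induced luciferase signal.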

| IC50 | Structure (SMILES) |
| --- | --- |
| 32 nM | CN(CCCCCCC1=C(c2ccc(F)c(O)c2)CCCc2cc(O)c(F)cc21)CCCS(=O)(=O)CCC(F)(F)F [Example 126, 2-Fluoro-8-(4-fluoro-3-hydroxyphenyl)-9-[6-(methyl{3-[(3,3,3-trifluoropropyl)sulphonyl]propyl}amino)hexyl]-6,7-dihydro-5H-benzo[7]annulen-3-ol] |
| 26 nM | CN(CCCCCCC1=C(c2ccccc2)CCCc2cc(O)ccc21)CCCS(=O)(=O)CCC(F)(F)F [Example 60, 9-[6-(Methyl{3-[(3,3,3-trifluoropropyl)sulphonyl]propyl}amino)hexyl]-8-phenyl-6,7-dihydro-5H-benzo[7]annulen-3-ol] |
| 250 nM | CN(CCCCCC1=C(c2ccccc2)CCCc2cc(O)ccc21)CCCCS(=O)(=O)CCC(F)(F)F [Example 111, 9-[5-(Methyl{4-[(3,3,3-trifluoropropyl)sulphonyl]butyl}amino)pentyl]-8-phenyl-6,7-dihydro-5H-benzo[7]annulen-3-ol] |
| 8 nM | CN(CCCCCC1=C(c2cccc(O)c2)CCCc2cc(O)ccc21)CCCCCS(=O)(=O)CCCC(F)(F)C(F)(F)F [Example 9, 8-(3-Hydroxyphenyl)-9-[5-(methyl{5-[(4,4,5,5,5-pentafluoropentyl)sulphonyl]pentyl}amino)pentyl]-6,7-dihydro-5H-benzo[7]annulen-3-ol] |
| 31 nM | CN(CCCCCC1=C(c2ccccc2)CCCc2cc(O)ccc21)CCCC[S+]([O-])CCCC(F)(F)C(F)(F)F (racemic) [Example 84, 9-[5-(Methyl{4-[(RS)-(4,4,5,5,5-pentafluoropentyl)sulphinyl]butyl}amino)pentyl]-8-phenyl-6,7-dihydro-5H-benzo[7]annulen-3-ol] |
| 9 nM | CN(CCCCCCC1=C(c2ccccc2)CCCc2cc(O)ccc21)CCC[S+]([O-])CCC(F)(F)C(F)(F)F (racemic) [Example 61, 9-[6-(Methyl{3-[(RS)-(3,3,4,4,4-pentafluorobutyl)sulphinyl]propyl}amino)hexyl]-8-phenyl-6,7-dihydro-5H-benzo[7]annulen-3-ol] |
| 1 nM | O=S(=O)(CCCN(CCCO)CCCCCCC1=C(c2cccc(O)c2)CCCc2cc(O)ccc21)CCCC(F)(F)C(F)(F)F [Example 92, 8-(3-Hydroxyphenyl)-9-{6-[(3-hydroxypropyl){3-[(4,4,5,5,5-mpentafluoropentyl)sulphonyl]propyl}amino]hexyl}-6,7-dihydro-5H-benzo[7]annulen-3-ol] |
| 24 nM | CN(CCCCCC1=C(c2ccc(F)c(O)c2)CCCc2cc(O)ccc21)CCCCS(=O)(=O)CCCC(F)(F)C(F)(F)F [Example 25, 8-(4-Fluoro-3-hydroxyphenyl)-9-[5-(methyl{4-[(4,4,5,5,5-pentafluoropentyl)sulphonyl]butyl}amino)pentyl]-6,7-dihydro-5H-benzo[7]annulen-3-ol] |
| 45 nM | CN(CCCCCC1=C(c2cccc(O)c2)CCCc2cc(O)ccc21)CCCCS(=O)(=O)CCC(F)(F)F [Example 112, 8-(3-Hydroxyphenyl)-9-[5-(methyl{4-[(3,3,3-trifluoropropyl)sulphonyl]butyl}amino)pentyl]-6,7-dihydro-5H-benzo[7]annulen-3-ol] |
| 61 nM | CCN(CCCCCCC1=C(c2ccccc2)CCCc2cc(O)ccc21)CCCS(=O)(=O)CCC(F)(F)F [Example 77, 9-[6-(Ethyl{3-[(3,3,3-trifluoropropyl)sulphonyl]propyl}amino)hexyl]-8-phenyl-6,7-dihydro-5H-benzo[7]annulen-3-ol] |
| 6 nM | CN(CCCCCCC1=C(c2ccc(F)c(O)c2)CCCc2cc(O)c(F)cc21)CCCC[S+]([O-])CCCC(F)(F)C(F)(F)F (racemic) [Example 124, 2-Fluoro-8-(4-fluoro-3-hydroxyphenyl)-9-[6-(methyl{4-[(RS)-(4,4,5,5,5-pentafluoropentyl)sulphinyl]butyl}amino)hexyl]-6,7-dihydro-5H-benzo[7]annulen-3-ol] |
| 17 nM | CN(CCCCCCC1=C(c2ccc(C#N)cc2)CCCc2cc(O)ccc21)CCCS(=O)(=O)CCCC(F)(F)C(F)(F)F [Example 22, 4-{3-Hydroxy-9-[6-(methyl{3-[(4,4,5,5,5-pentafluoropentyl)sulphonyl]propyl}amino)hexyl]-6,7-dihydro-5H-benzo[7]annulen-8-yl}benzonitrile] |
| 6 nM | CN(CCCCCCC1=C(c2ccc(F)c(O)c2)CCCc2cc(O)c(F)cc21)CCC[S+]([O-])CCC(F)(F)C(F)(F)F (racemic) [Example 122, 2-Fluoro-8-(4-fluoro-3-hydroxyphenyl)-9-[6-(methyl{3-[(RS)-(3,3,4,4,4-pentafluorobutyl)sulphinyl]propyl}amino)hexyl]-6,7-dihydro-5H-benzo[7]annulen-3-ol] |
| 7 nM | CC(C)(O)CN(CCCCCCC1=C(c2ccccc2)CCCc2cc(O)ccc21)CCCS(=O)(=O)CCC(F)(F)F [Example 83, 9-{6-[(2-Hydroxy-2-methylpropyl){3-[(3,3,3-trifluoropropyl)sulphonyl]propyl}amino]hexyl}-8-phenyl-6,7-dihydro-5H-benzo[7]annulen-3-ol] |
| 1 nM | [O-][S+](CCCN(CCO)CCCCCCC1=C(c2cccc(O)c2)CCCc2cc(O)ccc21)CCCC(F)(F)C(F)(F)F (racemic) [Example 87, 9-{6-[(2-Hydroxyethyl){3-[(RS)-(4,4,5,5,5-pentafluoropentyl)sulphinyl]propyl}amino]hexyl}-8-(3-hydroxyphenyl)-6,7-dihydro-5H-benzo[7]annulen-3-ol] |
| 5 nM | CN(CCCCCCC1=C(c2ccccc2)CCCc2cc(O)ccc21)CCCC[S+]([O-])CCCC(F)(F)C(F)(F)F (racemic) [Example 66, 9-[6-(Methyl{4-[(RS)-(4,4,5,5,5-pentafluoropentyl)sulphinyl]butyl}amino)hexyl]-8-phenyl-6,7-dihydro-5H-benzo[7]annulen-3-ol] |
| 2 nM | CN(CCCCCCC1=C(c2ccc(F)c(O)c2)CCCc2cc(O)ccc21)CCCC[S+]([O-])CCCC(F)(F)C(F)(F)F (racemic) [Example 30, 8-(4-Fluoro-3-hydroxyphenyl)-9-[6-(methyl{4-[(RS)-(4,4,5,5,5-pentafluoropentyl)sulphinyl]butyl}amino)hexyl]-6,7-dihydro-5H-benzo[7]annulen-3-ol] |
| 13 nM | O=S(=O)(CCCN(CCO)CCCCCCC1=C(c2ccccc2)CCCc2cc(O)ccc21)CCCC(F)(F)C(F)(F)F [Example 71, 9-{6-[(2-Hydroxyethyl){3-[(4,4,5,5,5-pentafluoropentyl)sulphonyl]propyl}amino]hexyl}-8-phenyl-6,7-dihydro-5H-benzo[7]annulen-3-ol] |
| 6 nM | CN(CCCCCCC1=C(c2ccc(F)c(O)c2)CCCc2cc(O)c(F)cc21)CCCS(=O)(=O)CCCC(F)(F)F [Example 127, 2-Fluoro-8-(4-fluoro-3-hydroxyphenyl)-9-[6-(methyl{3-[(4,4,4-trifluorobutyl)sulphonyl]propyl}amino)hexyl]-6,7-dihydro-5H-benzo[7]annulen-3-ol] |
| 11 nM | CN(CCCCCCC1=C(c2ccc(F)c(O)c2)CCCc2cc(O)ccc21)CCCCCCS(=O)(=O)CCCC(F)(F)C(F)(F)F [Example 35, 8-(4-Fluoro-3-hydroxyphenyl)-9-[6-(methyl{6-[(4,4,5,5,5-pentafluoropentyl)sulphonyl]hexyl}amino)hexyl]-6,7-dihydro-5H-benzo[7]annulen-3-ol] |
| 9 nM | CN(CCCCCCC1=C(c2ccccc2)CCCc2cc(O)ccc21)CCCS(=O)(=O)CCCC(F)(F)C(F)(F)F [Example 63, 9-[6-(Methyl{3-[(4,4,5,5,5-pentafluoropentyl)sulphonyl]propyl}amino)hexyl]-8-phenyl-6,7-dihydro-5H-benzo[7]annulen-3-ol] |
| 40 nM | CN(CCCCCC1=C(c2ccccc2)CCCc2cc(O)ccc21)CCCCS(=O)(=O)CCCC(F)(F)C(F)(F)F [Example 85, 9-[5-(Methyl{4-[(4,4,5,5,5-pentafluoropentyl)sulphonyl]butyl}amino)pentyl]-8-phenyl-6,7-dihydro-5H-benzo[7]annulen-3-ol] |
| 5 nM | CN(CCCCCCC1=C(c2ccc(F)c(O)c2)CCCc2c1ccc(O)c2F)CCCC[S+]([O-])CCC(F)(F)F (racemic) [Example 120, 4-Fluoro-8-(4-fluoro-3-hydroxyphenyl)-9-[6-(methyl{4-[(RS)-(3,3,3-trifluoropropyl)sulphinyl]butyl}amino)hexyl]-6,7-dihydro-5H-benzo[7]annulen-3-ol] |
| 9 nM | O=S(=O)(CCCN(CCO)CCCCCCC1=C(c2ccccc2)CCCc2cc(O)ccc21)CCC(F)(F)F [Example 79, 9-{6-[(2-Hydroxyethyl){3-[(3,3,3-trifluoropropyl)sulphonyl]propyl}amino]hexyl}-8-phenyl-6,7-dihydro-5H-benzo[7]annulen-3-ol] |
| 3 nM | CN(CCCCCCC1=C(c2ccc(F)c(O)c2)CCCc2cc(O)ccc21)CCCCC[S+]([O-])CCCC(F)(F)C(F)(F)F (racemic) [Example 32, 8-(4-Fluoro-3-hydroxyphenyl)-9-[6-(methyl{5-[(RS)-(4,4,5,5,5-pentafluoropentyl)sulphinyl]pentyl}amino)hexyl]-6,7-dihydro-5H-benzo[7]annulen-3-ol] |
